Experimental data from the supplement of paper PMC12463676, “Small-molecule dissolution of stress granules by redox modulation benefits ALS models” (Nature Chemical Biology, 2025).

Experiments:
[1] = compound: NC(=O)CCCCC1CCSS1 [lipoamide]; assay: thermal stability z-score vs DMSO; higher = more thermally stabilized by treatment; conditions: HeLa, lipoamide concentration 100 µM
Description: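 Cellular thermal proteome profiling in HeLa cells. Cells were treated with 100 µM lipoamide for 1 h, with or without 1 mM arsenate for a further 1 h, then heated to ten temperatures (37-66.3 °C), and soluble protein was quantified by TMT mass spectrometry relative to 0.1% DMSO controls. The thermal stability score (sum of log2 fold changes minus the abundance score) was transformed to a z-score; mean of n = 3 experiments.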

[2] = compound: O=[As]([O-])(O)O.[K+] [potassium arsenate]; assay: as above; conditions: HeLa; arsenate concentration 1 mM
Description: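 Cellular thermal proteome profiling in HeLa cells treated with 1 mM arsenate for 1 h (DMSO pretreatment), heated to ten temperatures (37-66.3 °C). Soluble protein was quantified by TMT mass spectrometry relative to DMSO controls; the thermal stability score was transformed to a z-score; mean of n = 3 experiments.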

[3] = arsenate co-treatment: 1 mM arsenate 1 h
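Note: each temperature applied for 3 min, abundance score taken as mean log2 fold change at the two lowest temperatures, z-score obtained by mean subtraction and division by SD.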

UniProt Q9H4A5, sequence (Q9H4A5 whole entry): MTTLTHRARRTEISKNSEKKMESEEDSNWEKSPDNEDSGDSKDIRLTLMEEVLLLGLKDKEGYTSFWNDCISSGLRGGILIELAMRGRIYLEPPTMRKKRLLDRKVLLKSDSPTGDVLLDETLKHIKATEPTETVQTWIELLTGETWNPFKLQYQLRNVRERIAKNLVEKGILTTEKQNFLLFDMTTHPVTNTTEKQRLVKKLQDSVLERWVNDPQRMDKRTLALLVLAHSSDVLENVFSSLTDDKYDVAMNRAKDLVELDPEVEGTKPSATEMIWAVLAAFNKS
UniProt Q99460, sequence (Q99460 whole entry): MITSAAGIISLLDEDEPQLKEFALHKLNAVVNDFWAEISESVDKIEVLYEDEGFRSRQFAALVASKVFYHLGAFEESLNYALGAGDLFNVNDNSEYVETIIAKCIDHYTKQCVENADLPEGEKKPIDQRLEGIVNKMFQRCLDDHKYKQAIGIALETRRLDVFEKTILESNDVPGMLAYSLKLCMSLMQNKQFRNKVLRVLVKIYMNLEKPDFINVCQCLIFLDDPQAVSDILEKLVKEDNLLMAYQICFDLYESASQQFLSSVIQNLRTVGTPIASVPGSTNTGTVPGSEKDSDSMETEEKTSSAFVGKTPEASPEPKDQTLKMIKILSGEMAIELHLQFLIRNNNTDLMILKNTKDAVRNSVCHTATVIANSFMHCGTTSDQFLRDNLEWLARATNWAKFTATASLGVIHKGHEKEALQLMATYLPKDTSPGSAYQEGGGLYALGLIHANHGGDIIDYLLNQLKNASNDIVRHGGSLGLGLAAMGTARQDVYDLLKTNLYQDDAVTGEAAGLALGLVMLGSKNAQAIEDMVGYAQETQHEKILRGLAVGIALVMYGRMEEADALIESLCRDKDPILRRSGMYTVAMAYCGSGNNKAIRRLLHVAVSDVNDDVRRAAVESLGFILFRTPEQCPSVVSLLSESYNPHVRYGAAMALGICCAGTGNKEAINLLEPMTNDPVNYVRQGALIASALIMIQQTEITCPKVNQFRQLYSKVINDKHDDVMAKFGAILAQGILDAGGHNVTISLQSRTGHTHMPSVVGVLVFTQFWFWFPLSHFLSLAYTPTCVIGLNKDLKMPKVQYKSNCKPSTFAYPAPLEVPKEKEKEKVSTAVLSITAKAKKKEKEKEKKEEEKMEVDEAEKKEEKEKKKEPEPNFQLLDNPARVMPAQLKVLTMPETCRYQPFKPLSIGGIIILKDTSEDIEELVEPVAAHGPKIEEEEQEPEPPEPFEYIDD
UniProt Q9Y4R8, sequence (Q9Y4R8 whole entry): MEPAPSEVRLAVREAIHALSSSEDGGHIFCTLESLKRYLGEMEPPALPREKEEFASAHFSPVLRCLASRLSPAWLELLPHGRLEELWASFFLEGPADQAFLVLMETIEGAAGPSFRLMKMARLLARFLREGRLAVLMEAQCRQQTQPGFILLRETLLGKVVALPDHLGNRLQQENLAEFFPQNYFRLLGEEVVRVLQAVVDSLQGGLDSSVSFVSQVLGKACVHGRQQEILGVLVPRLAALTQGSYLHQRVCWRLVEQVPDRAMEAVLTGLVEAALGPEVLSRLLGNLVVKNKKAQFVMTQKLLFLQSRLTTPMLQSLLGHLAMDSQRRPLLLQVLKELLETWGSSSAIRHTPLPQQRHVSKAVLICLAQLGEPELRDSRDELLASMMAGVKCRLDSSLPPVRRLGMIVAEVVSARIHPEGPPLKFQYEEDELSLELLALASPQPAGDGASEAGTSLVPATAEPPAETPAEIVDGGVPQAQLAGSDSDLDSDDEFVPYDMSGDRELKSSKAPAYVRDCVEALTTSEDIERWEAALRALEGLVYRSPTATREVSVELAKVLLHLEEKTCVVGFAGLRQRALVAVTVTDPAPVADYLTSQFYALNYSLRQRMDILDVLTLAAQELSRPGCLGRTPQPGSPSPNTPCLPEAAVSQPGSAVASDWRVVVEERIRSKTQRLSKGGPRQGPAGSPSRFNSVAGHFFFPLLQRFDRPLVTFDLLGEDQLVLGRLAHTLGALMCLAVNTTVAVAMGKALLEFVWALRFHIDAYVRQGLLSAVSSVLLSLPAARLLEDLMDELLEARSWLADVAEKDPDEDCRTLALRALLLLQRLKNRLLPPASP
UniProt Q92879, sequence (Q92879 whole entry): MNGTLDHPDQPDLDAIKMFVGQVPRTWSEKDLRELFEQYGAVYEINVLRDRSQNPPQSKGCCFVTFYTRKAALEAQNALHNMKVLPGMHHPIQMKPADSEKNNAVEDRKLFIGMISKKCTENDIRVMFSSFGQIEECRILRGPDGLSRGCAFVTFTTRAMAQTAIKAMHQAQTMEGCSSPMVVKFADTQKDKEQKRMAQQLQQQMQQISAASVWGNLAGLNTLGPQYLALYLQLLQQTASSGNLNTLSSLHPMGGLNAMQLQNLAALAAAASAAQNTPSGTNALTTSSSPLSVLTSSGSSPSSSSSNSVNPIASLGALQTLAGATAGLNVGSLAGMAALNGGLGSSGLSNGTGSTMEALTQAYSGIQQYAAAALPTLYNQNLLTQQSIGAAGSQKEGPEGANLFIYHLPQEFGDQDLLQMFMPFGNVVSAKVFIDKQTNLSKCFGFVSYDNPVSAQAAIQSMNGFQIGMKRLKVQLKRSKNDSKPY
UniProt Q92626, sequence (Q92626 whole entry): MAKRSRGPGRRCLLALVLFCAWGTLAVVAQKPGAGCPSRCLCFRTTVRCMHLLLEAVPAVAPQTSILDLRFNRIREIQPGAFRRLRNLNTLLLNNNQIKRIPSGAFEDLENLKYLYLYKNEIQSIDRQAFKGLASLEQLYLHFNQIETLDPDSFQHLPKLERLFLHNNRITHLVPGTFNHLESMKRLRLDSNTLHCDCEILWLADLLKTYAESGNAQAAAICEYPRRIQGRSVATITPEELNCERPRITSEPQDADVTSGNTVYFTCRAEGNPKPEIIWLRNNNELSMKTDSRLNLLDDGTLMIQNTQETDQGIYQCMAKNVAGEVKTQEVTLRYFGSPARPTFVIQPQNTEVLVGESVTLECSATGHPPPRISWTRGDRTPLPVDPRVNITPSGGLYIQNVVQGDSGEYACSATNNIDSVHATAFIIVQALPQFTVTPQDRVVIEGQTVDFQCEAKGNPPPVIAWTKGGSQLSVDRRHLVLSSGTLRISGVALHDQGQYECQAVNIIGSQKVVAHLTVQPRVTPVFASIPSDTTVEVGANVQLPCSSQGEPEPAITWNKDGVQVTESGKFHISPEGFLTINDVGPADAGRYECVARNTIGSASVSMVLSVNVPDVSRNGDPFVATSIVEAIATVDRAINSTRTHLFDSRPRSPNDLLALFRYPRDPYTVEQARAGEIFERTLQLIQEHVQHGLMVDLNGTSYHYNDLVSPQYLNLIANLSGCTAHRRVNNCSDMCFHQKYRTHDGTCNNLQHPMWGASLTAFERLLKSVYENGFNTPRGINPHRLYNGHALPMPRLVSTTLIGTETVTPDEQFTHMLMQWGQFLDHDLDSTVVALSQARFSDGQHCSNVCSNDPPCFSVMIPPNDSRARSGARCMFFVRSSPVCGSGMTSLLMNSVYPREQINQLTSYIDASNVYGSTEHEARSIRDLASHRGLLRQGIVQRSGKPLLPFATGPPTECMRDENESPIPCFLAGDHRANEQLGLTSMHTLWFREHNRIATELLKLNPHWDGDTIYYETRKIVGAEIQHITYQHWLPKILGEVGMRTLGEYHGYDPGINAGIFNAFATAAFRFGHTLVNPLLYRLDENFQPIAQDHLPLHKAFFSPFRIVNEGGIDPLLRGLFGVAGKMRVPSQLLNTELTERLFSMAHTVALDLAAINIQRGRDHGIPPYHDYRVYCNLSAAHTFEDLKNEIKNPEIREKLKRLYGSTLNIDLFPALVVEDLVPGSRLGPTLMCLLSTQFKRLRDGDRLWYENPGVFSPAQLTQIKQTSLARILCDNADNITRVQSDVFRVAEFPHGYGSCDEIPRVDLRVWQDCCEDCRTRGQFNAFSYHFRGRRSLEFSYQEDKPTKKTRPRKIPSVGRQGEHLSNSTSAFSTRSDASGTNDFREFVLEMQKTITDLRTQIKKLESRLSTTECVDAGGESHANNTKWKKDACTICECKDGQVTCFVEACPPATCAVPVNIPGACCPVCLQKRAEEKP
UniProt Q6PCE3, sequence (Q6PCE3 whole entry): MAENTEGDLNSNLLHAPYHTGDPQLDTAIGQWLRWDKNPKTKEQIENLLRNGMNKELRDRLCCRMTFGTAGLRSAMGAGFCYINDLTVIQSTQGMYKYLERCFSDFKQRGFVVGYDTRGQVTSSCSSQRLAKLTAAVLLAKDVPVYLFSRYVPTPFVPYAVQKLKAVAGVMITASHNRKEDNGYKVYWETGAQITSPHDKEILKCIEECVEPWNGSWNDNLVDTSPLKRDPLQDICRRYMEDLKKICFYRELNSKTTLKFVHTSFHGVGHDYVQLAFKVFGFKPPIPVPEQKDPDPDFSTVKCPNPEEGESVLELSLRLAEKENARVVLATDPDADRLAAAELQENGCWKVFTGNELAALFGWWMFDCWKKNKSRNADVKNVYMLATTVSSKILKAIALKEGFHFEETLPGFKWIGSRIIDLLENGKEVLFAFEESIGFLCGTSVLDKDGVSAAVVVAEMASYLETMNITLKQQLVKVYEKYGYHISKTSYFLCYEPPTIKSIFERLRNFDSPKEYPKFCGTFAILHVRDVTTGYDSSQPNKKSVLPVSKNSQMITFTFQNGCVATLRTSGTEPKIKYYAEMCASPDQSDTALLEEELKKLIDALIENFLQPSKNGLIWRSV
UniProt Q8TBN0, sequence (Q8TBN0 whole entry): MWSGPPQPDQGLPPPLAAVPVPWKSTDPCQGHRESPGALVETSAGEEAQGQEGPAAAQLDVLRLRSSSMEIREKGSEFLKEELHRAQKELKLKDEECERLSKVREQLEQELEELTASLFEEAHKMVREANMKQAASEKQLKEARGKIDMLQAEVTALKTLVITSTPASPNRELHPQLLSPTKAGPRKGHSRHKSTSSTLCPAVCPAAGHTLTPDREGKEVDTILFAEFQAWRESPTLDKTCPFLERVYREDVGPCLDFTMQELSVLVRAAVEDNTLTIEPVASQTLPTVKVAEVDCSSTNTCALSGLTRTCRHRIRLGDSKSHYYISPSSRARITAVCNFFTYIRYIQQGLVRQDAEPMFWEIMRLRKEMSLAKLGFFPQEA

Target	thermal stability z-score [1, 3]	thermal stability z-score ([1]; arsenate co-treatment: none)	thermal stability z-score [2]
TRIM32 (UniProt Q13049)	-0.257	-0.125	-3.56
TUBGCP2 (UniProt Q9BSJ2)	-0.0736	-0.0416	0.27
LPIN1 (UniProt Q14693)	-0.429	-0.906	-1.07
PRIM1 (UniProt P49642)	-0.361	-0.125	-0.439
GOLPH3L (UniProt Q9H4A5)	0.105	-1.21	-0.58
CELF1 (UniProt Q92879)	-1.1	-0.66	-0.593
STK11IP (UniProt Q8N1F8)	-0.747	-0.512	0.324
C8ORF37 (UniProt Q96NL8)	0.385	0.235	0.161
TMEM87A (UniProt Q8NBN3)	0.451	0.36	0.645
PXDN (UniProt Q92626)	-1.65	-1.61	0.0514
PSMD1 (UniProt Q99460)	0.651	0.343	0.245
SRSF3 (UniProt P84103)	1.69	0.987	-0.485
ABCC5 (UniProt O15440)	0.335	0.0156	-0.077
NUP85 (UniProt Q9BW27)	0.16	0.113	0.613
PASK (UniProt Q96RG2)	0.103	0.0323	-0.353
KRAS (UniProt P01116)	0.168	0.186	0.184
NF1 (UniProt P21359)	-0.487	-0.235	-0.72
RIN1 (UniProt Q13671)	-0.105	-0.041	0.0874

Target	thermal stability z-score [1, 3]	thermal stability z-score ([1]; arsenate co-treatment: none)	thermal stability z-score [2]
CRYZ (UniProt Q08257)	0.232	0.229	0.207
GLT8D2 (UniProt Q9H1C3)	-1.22	-0.83	-0.0179
TELO2 (UniProt Q9Y4R8)	-0.413	-0.306	0.208
MAP7 (UniProt Q14244)	0.478	-0.183	-0.779
PGM2L1 (UniProt Q6PCE3)	0.405	0.129	0.314
MAP1S (UniProt Q66K74)	-0.223	-0.342	-0.318
VPS37B (UniProt Q9H9H4)	-0.0126	0.246	-0.0299
TP53BP1 (UniProt Q12888)	1.4	0.891	-0.0759
APPL1 (UniProt Q9UKG1)	-0.333	0.107	1.2
MRPS16 (UniProt Q9Y3D3)	-0.314	-0.201	0.0354
RBM7 (UniProt Q9Y580)	0.00736	0.0818	0.0182
VPS53 (UniProt Q5VIR6)	0.332	0.126	-0.0122
SRP54 (UniProt P61011)	-0.193	0.172	0.715
RAB3IL1 (UniProt Q8TBN0)	-0.235	0.559	-0.89
PLXNA1 (UniProt Q9UIW2)	0.316	-0.385	-0.00413
RABIF (UniProt P47224)	0.243	0.233	-0.572
PARN (UniProt O95453)	0.181	-0.273	0.95
SLC9A6 (UniProt Q92581)	-0.145	-0.0692	-0.165
